Measured values: patent publication US20200253868A1, “CELL AUTOPHAGY INHIBITOR AND PREPARATION METHOD THEREFOR AND APPLICATION THEREOF” (CHINA PHARMACEUTICAL UNIVERSITY, priority 2017, published 2020)

Key:
[1] = test system: KRAS mutant HCT116 nude mice xenograft; assay: Human colon cancer xenograft in nude mice, tumor inhibition rate; assay type: in vivo, BABL/c nude mice; conditions: injection via tail vein, once every other day, 14 days
Method: (§1) HCT116 is diluted with serum-free McCoy's 5a medium to 1×10^7 cells/mL, and 100 μL of the cell suspension is inoculated subcutaneously in the left armpit of BABL/c nude mice and grown for 7 days to form a tumor-bearing mouse model. The tumor-bearing mice with good growth are inoculated and randomly divided into groups. The RA-V nano-micelle injection prepared in Embodiment 3 is administered through the tail vein and administered once every other day, and the animals used are sacrificed 14 days after the administration, and the tumors are removed and weighed, calculate tumor suppression rate and perform statistical processing. Tumor inhibition rate (%)=(average tumor weight in the control group-average tumor weight in the experimental group)/average tumor weight in the control group×100%.
as §1, with “RA-XII(2)” for “The RA-V nano-micelle”, “injection” for “injection prepared in Embodiment 3”

[2] = test system: KRAS dependent H441 model; assay: Human lung cancer xenograft in nude mice, tumor inhibition rate; assay type: in vivo, BABL/c nude mice; conditions: 2.5 mg/kg, nano-micelle injection, tail vein, once every other day, 14 days
Method: as §1, with “Human lung cancer cells KRAS dependent H441 and KRAS independent H460 are” for “HCT116 is”, “physiological saline” for “serum-free McCoy's 5a medium”, “form” for “form a”

[3] = test system: KRAS independent H460 model; assay: as above; assay type: in vivo, BABL/c nude mice; conditions: 2.5 mg/kg, nano-micelle injection, tail vein, once every other day, 14 days
Method: as §1, with “Human lung cancer cells KRAS dependent H441 and KRAS independent H460 are” for “HCT116 is”, “physiological saline” for “serum-free McCoy's 5a medium”, “form” for “form a”

[4] = test system: KRAS dependent H358 cells; assay: PI/Annexin V double staining, flow cytometry; assay type: cell-based, human; conditions: H358, 24 hours
Method: (§2) KRAS independent A549 and H460 and KRAS dependent H441 and H358 cell lines which are cultured overnight in a 10% FBS medium, are digested by trypsin to form cell suspensions, which are seeded at a suitable concentration on a 6-well plate, after 24 h, RA-V (1) is added to treat for 24 hours, and are digested by trypsin, and centrifuge at 2000 rpm for 5-10 minutes at room temperature to collect cells; resuspend the cells once with pre-chilled 1×PBS (4° C.), centrifuge at 2000 rpm for 5-10 minutes, and wash the cells; add 300 μL of 1×Binding Buffer to resuspend the cells; add 5 μL of Annexin V-FITC and mix, and incubate for 15 minutes at room temperature away from light; add 5 μL of PI staining 5 minutes before the operation, and detect the cells by the flow cytometry.

[5] = test system: KRAS independent H460 cells; assay: PI/Annexin V double staining, flow cytometry; assay type: cell-based, human; conditions: H460, 24 hours
Method: as §2

[6] = test system: KRAS dependent H441 cells; assay: PI/Annexin V double staining, flow cytometry; assay type: cell-based, human; conditions: H441, 24 hours
Method: as §2

[7] = test system: KRAS independent A549 cells; assay: PI/Annexin V double staining, flow cytometry; assay type: cell-based, human; conditions: A549, 24 hours
Method: as §2

H358 cells = assay: Western blot of Capsase3, BCL-2 and BCL-XL; assay type: cell-based, human
H441 cells = assay: Western blot of Capsase3, BCL-2 and BCL-XL; assay type: cell-based, human
A549 cells = assay: Western blot of Capsase3, BCL-2 and BCL-XL; assay type: cell-based, human
Method: (§3) […] A549 and H460 cells which are cultured overnight in a 10% FBS medium are seeded in a 24-well plate at an appropriate density, after 24 hours, the cells are collected to detect the expression levels of […] proteins BCL-2, BCL-XL and […]3 by the Western blot experiment.

H460 cells = assay: Western blot of Capsase3, BCL-2 and BCL-XL; assay type: cell-based, human
Method: as §3

[8] = test system: KRAS dependent H358 cells; assay: GFP-LC3 transfection, autophagosome formation by fluorescence microscope; assay type: cell-based, human; conditions: H358, 24 hours
Method: (§4) KRAS dependent H441 and H358 cells which are cultured overnight in a 10% FBS medium are seeded in a 24-well plate at an appropriate density and transfected with the GFP-LC3 plasmid, after 24 hours, RA-V (1) is added to react for 24 hours, and the localization of GFP-LC3 is observed with a fluorescence microscope, and the number of autophagy cells is calculated quantitatively.

[9] = test system: KRAS dependent H441 cells; assay: as above; assay type: cell-based, human; conditions: H441, 24 hours
Method: as §4

[10] = test system: KRAS dependent H358 cells; assay: MTT assay of cell viability; assay type: cell-based, human; conditions: H358, 0, 50, 100, 200 nM, 24 hours
Method: (§5) MTT assay is used to determine the cell viability. KRAS independent A549 and H460 and KRAS dependent H441 and H358 cell lines which are cultured overnight in a 10% FBS medium, are digested by trypsin to form cell suspensions, which are seeded at a suitable concentration on a 96-well plate with 100 μl/well, cultured in a CO2 incubator for 24 hours until the cells are completely attached, and RA-V (1) with a final concentration of 0, 50, 100, 200 nM is added to react for 24 hours, and then 20 μl of MTT solution (5 mg/ml in PBS, pH=7.4) is added to each well and continue to incubate for 4 hours, stop the culture, and carefully discard the culture supernatant in the wells. Add 150 μl DMSO to each well and shake for 10 minutes to fully dissolve the crystals. Select the wavelength of 490 nm, measure the light absorption value of each well on the enzyme-linked immunosorbent detector, record the results, draw the cell growth curve with time as the abscissa and absorbance value as the ordinate.

[11] = test system: KRAS dependent H441 cells; assay: MTT assay of cell viability; assay type: cell-based, human; conditions: H441, 0, 50, 100, 200 nM, 24 hours
Method: as §5

[12] = test system: KRAS dependent H358 cells; assay: Western blot of autophagy-related proteins LC3, Atg7 and Beclin1; assay type: cell-based, human; conditions: H358, 0, 50, 100, 200 nM, 24 hours
Method: (§6) KRAS dependent H441 and H358 cells which are cultured overnight in a 10% FBS medium are seeded in a 24-well plate at an appropriate density, after 24 hours, RA-V (1) with a concentration of 0, 50, 100, and 200 nM is added to react for 24 hours, and then the cells are collected to detect the expression levels of autophagy-related proteins LC3, Atg7 and Beclin1 by the Western blot experiment.

[13] = test system: KRAS dependent H441 cells; assay: as above; assay type: cell-based, human; conditions: H441, 0, 50, 100, 200 nM, 24 hours
Method: as §6

Row | SMILES | tumor inhibition rate ([1]; HCT116, high dosage) | tumor inhibition rate ([1]; HCT116, medium dosage) | tumor inhibition rate [2] | anti-tumor effect [3] | cell apoptosis (PI/Annexin V) [4] | cell apoptosis (PI/Annexin V) [5] | cell apoptosis (PI/Annexin V) [6] | cell apoptosis (PI/Annexin V) [7] | cell apoptosis by expression of Capsase3, BCL-2 and BCL-XL (H358 cells) | cell apoptosis by expression of Capsase3, BCL-2 and BCL-XL (H441 cells) | cell apoptosis by expression of Capsase3, BCL-2 and BCL-XL (A549 cells) | cell apoptosis by expression of Capsase3, BCL-2 and BCL-XL (H460 cells) | GFP-LC3 of treated cells compared with the blank group [8] | GFP-LC3 of treated cells compared with the blank group [9] | cell survival (MTT) [10] | cell survival (MTT) [11] | expression levels of LC3-II, Atg7 and Beclin1 [12] | expression levels of LC3-II, Atg7 and Beclin1 [13]
1 | COc1ccc(C[C@H]2C(=O)N[C@@H](C)C(=O)N(C)C3Cc4ccc(cc4)Oc4cc(ccc4O)C[C@@H](C(=O)N[C@H](C)C(=O)N[C@@H](C)C(=O)N2C)N(C)C3=O)cc1 [RA-V (1), RA-V] | 66.67% | 41.67% | 50.4% | not effective | significantly induces the cell apoptosis | no significant effect | significantly induces the cell apoptosis | no significant effect | significantly induces the cell apoptosis | significantly induces the cell apoptosis | no significant effect | no significant effect | significantly reduce | significantly reduce | inhibits the survival | inhibits the survival | decrease with the increase of the concentration | decrease with the increase of the concentration
2 | COc1ccc(C[C@H]2C(=O)N[C@@H](C)C(=O)N(C)C3Cc4ccc(cc4)Oc4cc(ccc4O[C@@H]4OC(CO)[C@@H](O)[C@H](O)C4O)C[C@@H](C(=O)N[C@H](C)C(=O)N[C@@H](C)C(=O)N2C)N(C)C3=O)cc1 (some centres unmarked) [RA-XII (2), RA-XII] | 79.92% | 68.47% |  |  |  |  |  |  |  |  |  |  |  |  |  |  |  | 
